What was measured:
[1] = test system: preconfluent neonatal foreskin fibroblast cells; assay: cytoskeletal reorganization, phalloidin/propidium iodide staining; type: cell-based; conditions: pre-confluent fibroblasts; 5 or 10 μl Formula I(n); 24 hours; compared to controls
Description: (§1) FIG. 4A is a micrograph of preconfluent neonatal foreskin fibroblast cells that have not been treated with Formula I(n). After 24 hours of mock treatment, cells were stained with phalloidin (actin-green) and propidium iodide (nuclei-red). FIG. 4B is a micrograph of preconfluent neonatal foreskin fibroblast cells that have been treated with 5 μl/10 ml Formula I(n). After 24 hours of treatment, cells were stained with phalloidin (actin-green) and propidium iodide (nuclei-red). FIG. 4C is a micrograph of preconfluent neonatal foreskin fibroblast cells that have been treated with 10 μl/10 ml Formula I(n). After 24 hours of treatment, cells were stained with phalloidin (actin-green) and propidium iodide (nuclei-red). FIG. 4D is a micrograph of confluent MDA-MB231 breast cancer cells that have not been treated with Formula I(n). After 24 hours of mock treatment, cells were stained with phalloidin (actin-green) and propidium iodide (nuclei-red). FIG. 4E is a micrograph of confluent MDA-MB231 breast cancer cells that have been treated with 5 μl/10 ml Formula I(n). After 24 hours of treatment, cells were stained with phalloidin (actin-green) and propidium iodide (nuclei-red). FIG. 4F is a micrograph of confluent MDA-MB231 breast cancer cells that have been treated with 10 μl/10 ml Formula I(n). After 24 hours of treatment, cells were stained with phalloidin (actin-green) and propidium iodide (nuclei-red). FIG. 4G is a micrograph of preconfluent MDA-MB231 breast cancer cells that have not been treated with Formula I(n). After 24 hours of mock treatment, cells were stained with phalloidin (actin-green) and propidium iodide (nuclei-red). FIG. 4H is a micrograph of preconfluent MDA-MB231 breast cancer cells that have been treated with 5 μl/10 ml Formula I(n). After 24 hours of treatment, cells were stained with phalloidin (actin-green) and propidium iodide (nuclei-red).
Formula I(n) was next analyzed for its ability to induce cytoskeletal reorganization. […]

[2] = test system: focal adhesion kinase (FAK) [Tyr576] phosphorylation; assay: western blot of FAK[Tyr576] phosphorylation in Hs578T cells; type: cell-based, human; conditions: 5 or 10 μl Formula I(n)/10 ml media, 3 days
Text: FIG. 5 is a western blot showing the inhibition of the phosphorylation of focal adhesion kinase (FAK) in Hs578T cells treated with Formula I(n). Antibodies that detect the FAK protein that has been phosphorylated on pTyr576 were used at a dilution of 1:1000 (rabbit anti-FAK[pTyr576] from Biosource Inc., Camarillo, Calif., USA).
It has previously been shown that reduced migratory ability of various invasive breast tumor cells, including MDA-MB231, Hs578T (Payne S L, Fogelgren B, Hess A R, Seftor E A, Fong S F T, Csiszar K, Hendrix M J C, and Kirschmann D A. Lysyl oxidase regulates breast cancer cell migration and adhesion through a hydrogen peroxide-mediated mechanism. Cancer Res. 65:11429-36, 2005), and astrocytoma cells (Laczko R, Szauter K M, Jansen M K, Hollosi P, Muranyi M, Molnar J, Fong K S K, Hinek A, Csiszar K. Active lysyl oxidase (LOX) correlates with FAK/paxillin activation and migration in invasive astrocytes. Neuropathol Appl Neurobiol. 33:631-43, 2007) was due to reduced activation of Focal Adhesion Kinase (FAK) and diminished SRC and/or Paxillin signaling. In order to determine the status of FAK activation in Formula I(n) treated cells, the phosphorylation status of FAK[Tyr576] in Hs578T cells treated with 5 and 10 μl Formula I(n) was analyzed.
In these experiments, Hs578T cells were cultured in standard DMEM, 1× Antibiotics and 10% FBS. […]

[3] = test system: MDA-MB231 invasive breast tumor cells; assay: Membrane Invasion Culture System (MICS) chamber tumor cell migration; type: cell-based, human; conditions: 5 or 10 μl/10 ml Formula I(n), 24 hours, vs untreated and methanol controls
Description: FIG. 1A is graph of cell migration using the breast cancer cell line MDA-MB231 for cells treated with 0 μl/10 ml, 5 μl/10 ml and 10 μl/10 ml Formula I(n). The effect of Formula I(n) on the migration of MDA-MB231 invasive breast tumor cells was tested using the Membrane Invasion Culture System (MICS) chamber. The Membrane Invasion Culture System (MICS) chamber was assembled with Crosstex 10 μm polycarbonate membrane pre-soaked in gelatin for 12 hours. The lower wells were fully loaded with DMEM supplemented with 10% FBS and 0, 5, 10 μl/10 ml Formula I(n) diluted in 0-20 μl/10 ml methanol. The upper wells were loaded with 1 ml serum-free phenol-red-free media and corresponding Formula I(n)/methanol solution. 100,000 cells/well were loaded and the chamber was incubated at 37° C. for 24 hours. […] The membrane was rinsed in water, placed onto a microscope slide pre-treated with immersion oil, covered with a coverslip and cells were counted under a light microscope. Each sample was measured in triplicate. […]
The Membrane Invasion Culture System (MICS) chamber was assembled with Crosstex 10 μm polycarbonate membrane pre-soaked in gelatin for 12 hours. […] The membrane was rinsed in water, placed onto a microscope slide pre-treated with immersion oil, covered with a coverslip and cells were counted under a light microscope. Each sample was measured in triplicate.

[4] = test system: MDA-MB231 breast cancer cells; assay: cytoskeletal reorganization and cell density, phalloidin/propidium iodide staining; type: cell-based, human; conditions: 24 hours
Description: as §1, with “After 24 hours of treatment, cells were stained with phalloidin (actin-green) and propidium iodide (nuclei-red). FIG. 4G is a micrograph of preconfluent MDA-MB231 breast cancer cells that have not been treated with Formula I(n). After 24 hours of mock treatment, cells were stained with phalloidin (actin-green) and propidium iodide (nuclei-red). FIG. 4H is a micrograph of preconfluent MDA-MB231 breast cancer cells that have been treated with 5 μl/10 ml Formula I(n). After 24 hours of treatment, cells were stained with phalloidin (actin-green) and propidium iodide (nuclei-red).” left out

[5] = test system: foreskin fibroblasts (Clonetics); assay: in vitro scratch assay, fibroblast migration; type: cell-based
Description: FIG. 2A is a micrograph of an in vitro scratch assay using fibroblasts showing the migration of fibroblasts at 0 hours without treatment of Formula I(n). Confluent cultures of foreskin fibroblasts (Clonetics) were scratched with the tip of a 200 μl pipet tip, rinsed once with PBS and media was changed to serum free media containing 0 μl/10 ml Formula I(n). Pictures were taken at the indicated time (0, 12, or 24 hours) following scratching and the distance between the migrating lips were measured in pixels. FIG. 2B is a micrograph of an in vitro scratch assay using fibroblasts showing the migration of fibroblasts at 0 hours upon treatment with 5 μl/10 ml Formula I(n). […]
FIG. 3 is a graph of the distance between the migrating lips (as measured in pixels) vs. the time (hours) after administration of Formula I(n). […]
Confluent cultures of foreskin fibroblasts (Clonetics) were scratched with the tip of a 200 μl pipet tip, rinsed once with PBS and media was changed to serum free media containing 0 (FIG. 2A, 2D, 2G) 5 (FIG. 2B, 2E, 2H) or 10 (FIG. 2C, 2F) μl/10 ml Formula I(n). Pictures were taken at 0 (FIG. 2A, 2B, 2C), 12 (FIG. 2D, 2E, 2F) or 24 (FIG. 2G, 2H) hours following scratching and the distance between the migrating lips were measured in pixels. FIG. 3 is a graph of the distance between the migrating lips (as measured in pixels) vs. the time (hours) after administration of Formula I(n).

[6] = test system: Hs578T invasive breast tumor cells; assay: Membrane Invasion Culture System (MICS) chamber tumor cell migration; type: cell-based, human; conditions: 5 or 10 μl/10 ml Formula I(n), 24 hours, vs untreated and methanol controls
silkworm larvae, B. mori = conditions: concentrations in the diet up to 300 μg/g; cited from earlier work
[7] = test system: Staphylococcus aureus Rosenbach; conditions: cited from earlier work
[8] = test system: Bacillus subtilis (Ehrenberg) Cohn; conditions: cited from earlier work

CCCCC/C=C\C/C=C\CCCCCCCc1ccco1 [Formula I(n)]
filopodia [1]: numerous filopodia | staining at adhesion sites [1]: reduced staining | staining intensity of the actin cytoskeleton [1]: concentration dependent increase | FAK[Tyr576] phosphorylation [2]: concentration dependent decrease | tumor cell migration [3]: significantly inhibited | tumor cell morphology ([4]; 5 or 10 μl Formula I(n)): elongated, spindle shaped | cell densities (tumor cell proliferation) ([4]; both Formula I(n) concentrations, both stages of cell confluency): significantly reduced | migration of fibroblasts (distance between the migrating lips) ([5]; 5 or 10 μl/10 ml Formula I(n), 12 and 24 hours after scratching, serum free media): reduced migration | migration of fibroblasts (distance between the migrating lips) ([5]; higher Formula I(n) concentration (10 μl/10 ml)): almost completely diminished | tumor cell migration [6]: significantly inhibited

CCCCC/C=C\C/C=C\CCCCCCCc1ccco1 [2-(8Z, 11Z-heptadecadienyl)furan, 2-(8Z,11Z-heptadecadienyl)furan]
activity against silkworm larvae (silkworm larvae, B. mori): no activity

C=CCCCCCCCCCCCc1ccco1 [2-(trideca-12-enyl)furan]
growth of bacteria [7]: inhibited growth | growth of bacteria [8]: inhibited growth
